Laboratory results from patent publication US20140357512A1, “HISTONE DEACETYLASE (HDAC) BIOMARKERS IN MULTIPLE MYELOMA” (priority 2013, published 2014).

Tested on: human myeloma cell line MM.1S
Assay: SILAC acetylated-lysine peptide profiling, HDAC inhibitor vs DMSO (light/heavy ratio)
Type: cell-based
Description: An embodiment of the invention comprises utilizing the SILAC method in order to quantitate changes in protein expression between two or more populations of cells. The SILAC method is a technique based on mass spectrometry that detects differences in protein abundance among samples using non-radioactive isotopic labeling. The SILAC method is known in the art, and described in detail in Ong et al., “Stable Isotope Labeling by Amino Acids in Cell Culture, SILAC, as a Simple and Accurate Approach to Expression Proteomics”, Molecular & Cellular Proteomics, vol. 1, pp. 376-386 (2002), which is incorporated herein by reference in its entirety.
Briefly, the SILAC method involves growing two populations of cells in cell culture. The first population of cells is grown in growth media containing normal amino acids (“normal media”). The second population of cells is grown in media lacking a standard essential amino acid (such as lysine), but is then supplemented with a non-radioactive, isotopically labeled form of that essential amino acid (such as lysine labeled with ^13C atoms, rather than normal ^12C atoms), which is called “heavy media”. When the two populations of cells are each growing in the medium, they incorporate the amino acids into all of their proteins. The growth of cells maintained in the heavy media is no different from that in normal media. All peptides containing the heavy amino acids are heavier than their normal counterparts. The cells from each of the two populations of cells are lysed. The lysates from each of the two cell populations are then combined. The combined cell lysates are then analyzed by mass spectrometry. Pairs of chemically identical peptides of different stable isotope composition can be differentiated in a mass spectrometer due to their difference in mass. The ratio of peak intensities in the mass spectrum for such peptide pairs reflects the abundance ratio for the two proteins.
This example describes SILAC studies that were performed to compare the effects of three different HDAC inhibitors (Compound A, Compound B, and tubastatin A) to a control on a human multiple myeloma cell line. The HDAC inhibitors were also compared amongst themselves to determine differences in their effects.
A human myeloma cell line MM.1S was grown using either ^12C (light) or ^13C (heavy) lysine containing culture medium. The “heavy” cells were treated with DMSO as the control, and the “light” cells were treated with a single HDAC inhibitor at 37° C. for 6 hours. The heavy and light cells were lysed, and the lysates were mixed in 1:1 ratio and digested with the protease trypsin. The acetylated lysine containing peptides (due to the action of the HDAC inhibitor) in the digested peptide pool were captured by a non-specific anti-acetylated lysine antibody cocktail (the antibodies identify both light and heavy acetylated peptides), and subjected to mass spectrometry analysis in order to identify thousands of individual peptides.
Thousands of peptides were identified in pairs (^12C and ^13C) due to their known mass differences. The amino acid sequence and quantitative ratio (Light/Heavy) of a given peptide in two differentially treated cell lysates were then determined and annotated with their possible protein (gene) sources.
As stated above, three HDAC inhibitors (Compound A, Compound B, and Tubastatin A) were used. Thus, the SILAC method was performed three times, with a different HDAC inhibitor compared to a control each time. Accordingly, there are three pairs of quantitative data in the table below, i.e., Compound A:DMSO, Compound B:DMSO, and Tubastatin A:DMSO. A cut-off of 1.30 fold of change (increase or decrease) was then used to determine “changed” or “+” in the table, and any peptides with a fold of change less than 1.3 fold were determined to be “unchanged” or “0” in the table. Those peptides that were not identified were marked as “NA” in the table. […]

SMILES: O=C(NO)c1cnc(NC2(c3cccc(F)c3)CCCCC2)nc1 [Compound B, 2-((1-(3-fluorophenyl)cyclohexyl)amino)-N-hydroxypyrimidine-5-carboxamide]
- L/H ratio of acetylated peptide ([…](ac)HLSASQK (SEQ ID NO: 381), Cytochrome c oxidase subunit 4 isoform 1 mitochondrial [53], COX4I1): −0.63 log 2
- light to heavy ratio (L/H ratio) of acetylated peptide, log 2 scale ([…](ac)IFK (SEQ ID NO: 157), cDNA FLJ59630 highly similar to Growth hormone-inducible transmembrane protein [76], GHITM): 0.00
- light to heavy ratio (L/H ratio) of acetylated peptide, log 2 scale ([…](ac)IVIQK (SEQ ID NO: 165), Isoform A1-B of Heterogeneous nuclear ribonucleoprotein A1 [161], HNRNPA1): 0.00
- light to heavy ratio (L/H ratio) of acetylated peptide, log 2 scale ([…](ac)K (SEQ ID NO: 242), Vimentin [235], VIM): 0.00
- L/H ratio of acetylated peptide ([…](ac)K (SEQ ID NO: 427), Profilin-1 [126], PFN1): 0.58 log 2
- light to heavy ratio (L/H ratio) of acetylated peptide, log 2 scale ([…](ac)LFR (SEQ ID NO: 136), B-cell receptor-associated protein 31 [95], BCAP31): 0.00
- L/H ratio of acetylated peptide ([…](ac)LHIVK (SEQ ID NO: 378), Chloride intracellular channel protein 4 [194], CLIC4): 0.51 log 2
- light to heavy ratio (L/H ratio) of acetylated peptide, log 2 scale ([…](ac)LLPHIR (SEQ ID NO: 208), 60S acidic ribosomal protein P0 [77], RPLP0): 0.00
- L/H ratio of acetylated peptide ([…](ac)VNSK (SEQ ID NO: 430), Isoform 1 of Inorganic pyrophosphatase 2 mitochondrial [69], PPA2): 0.91 log 2
- L/H ratio of acetylated peptide ([…](ac)WK (SEQ ID NO: 453), Lupus La protein [328], SSB): 0.57 log 2
- L/H ratio of acetylated peptide ([…](ac)YLNFVK (SEQ ID NO: 405), Endoplasmin [428], HSP90B1): 0.77 log 2
- L/H ratio of acetylated peptide ([…](ac)YQEALAK (SEQ ID NO: 450), Superoxide dismutase [Mn] mitochondrial [68], SOD2): −0.67 log 2
- light to heavy ratio (L/H ratio) of acetylated peptide, log 2 scale ([…](ac)[…] (SEQ ID NO: 132), ATP synthase subunit b mitochondrial [221], ATP5F1): 0.00
- light to heavy ratio (L/H ratio) of acetylated peptide, log 2 scale ([…](ac)[…] (SEQ ID NO: 139), cDNA FLJ55574 highly similar to Calnexin [217], CANX): 0.00
- light to heavy ratio (L/H ratio) of acetylated peptide, log 2 scale ([…](ac)[…] (SEQ ID NO: 145), Isoform 1 of Cellular nucleic acid-binding protein [118], CNBP): 0.00
- L/H ratio of acetylated peptide ([…](ac)[…] (SEQ ID NO: 372), Calreticulin [98], CALR): −0.43 log 2
- L/H ratio of acetylated peptide ([…](ac)[…] (SEQ ID NO: 387), D-dopachrome decarboxylase [87], DDT): −0.44 log 2
- L/H ratio of acetylated peptide ([…](ac)[…] (SEQ ID NO: 399), Guanine nucleotide-binding protein subunit beta-2-like 1 [139], GNB2L1): 0.54 log 2
- L/H ratio of acetylated peptide ([…](ac)[…] (SEQ ID NO: 408), Isoform 1 of Isocitrate dehydro-genase [NAD] subunit alpha mitochondrial [77], IDH3A): −0.44 log 2
- L/H ratio of acetylated peptide ([…](ac)[…] (SEQ ID NO: 455), Isoform 1 of Translocon-associated protein subunit alpha [102], SSR1): −0.88 log 2
- L/H ratio of acetylated peptide ([…](ac)[…] (SEQ ID NO: 466), Voltage-dependent anion-selective channel protein 1 [266], VDAC1): −0.66 log 2
- L/H ratio of acetylated peptide ([…](ac)[…] (SEQ ID NO: 469), Isoform 1 of Voltage-dependent anion-selective channel protein 3 [266], VDAC3): −0.71 log 2
- light to heavy ratio (L/H ratio) of acetylated peptide YDGK(ac)WEVEEMK (SEQ ID NO: 274) (cDNA FLJ55574 highly similar to Calnexin [138], CANX, drug:DMSO): 0.00 log 2
- light to heavy ratio (L/H ratio) of acetylated peptide LNK(ac)PFLFDTK (SEQ ID NO: 327) (cDNA FLJ55574 highly similar to Calnexin [172], CANX, drug:DMSO): 0.43 log 2
- light to heavy ratio (L/H ratio) of acetylated peptide NFK(ac)SISK (SEQ ID NO: 356) (cDNA FLJ56425 highly similar to Very-long-chain specific acyl-CoAdehydrogenase mitochondrial [681], ACADVL, drug:DMSO): 0.44 log 2
- light to heavy ratio (L/H ratio) of acetylated peptide LPSSTK(ac)SGWPR (SEQ ID NO: 500) (cDNA FLJ75110 highly similar to Homo sapiens PHD finger protein 15 (PHF15) mRNA [38], gene PHF15, inhibitor:DMSO): 0.00 log 2
- light to heavy ratio (L/H ratio) of acetylated peptide IINEVSK(ac)[…] (SEQ ID NO: 341) (cDNA FLJ77177 highly similar to Homo sapiens arginine-rich mutated in early stage tumors (ARMET) mRNA [97], MANF, drug:DMSO): −0.58 log 2
- light to heavy ratio (L/H ratio) of acetylated peptide TNVPVK(ac)LFAR (SEQ ID NO: 348) (cDNA FLJ77422 highly similar to Homo sapiens RNA binding protein autoantigenic (hnRNP-associated with lethal yellow homolog (mouse)) transcript variant 1 mRNA (Fragment) [165], RALY, drug:DMSO): 0.39 log 2
- light to heavy ratio (L/H ratio) of acetylated peptide EIAQEFK(ac)TDLR (SEQ ID NO: 337) (histone cluster 2 H3 pseudogene 2 [80], HIST2H3PS2, drug:DMSO): −0.49 log 2
- light to heavy ratio (L/H ratio) of acetylated peptide SK(ac)SDPIMLLK (SEQ ID NO: 255) (pyruvate dehydrogenase E1 component subunit alpha somatic form mitochondrial isoform 2 precursor [351], PDHA1, drug:DMSO): 0.00 log 2
- light to heavy ratio (L/H ratio) of acetylated peptide VTNLLMLK(ac)GK (SEQ ID NO: 350) (regulator of differentiation 1 isoform 2 [64], ROD1, drug:DMSO): 0.83 log 2
- light to heavy ratio (L/H ratio) of acetylated peptide LTSLNVK(ac)YNNDK (SEQ ID NO: 590) (regulator of differentiation 1 isoform 2 [236], gene ROD1, inhibitor:DMSO): 0.00 log 2
- light to heavy ratio (L/H ratio) of acetylated peptide GWLK(ac)[…] (SEQ ID NO: 278) (triosephosphate isomerase isoform 2 [231], TPI1, TPI1P1, drug:DMSO): 0.00 log 2
